This experiment deals with T1, Human FXR full length (Homo sapiens, UniProt Q96RI1).
T1 construct: Human FXR full length and RXR full length was obtained from Ronald Evans' laboratory; expressed in transfected cells; host or cells: CV-1 cells
T1 sequence (Q96RI1 1-476 isoform Q96RI1-1): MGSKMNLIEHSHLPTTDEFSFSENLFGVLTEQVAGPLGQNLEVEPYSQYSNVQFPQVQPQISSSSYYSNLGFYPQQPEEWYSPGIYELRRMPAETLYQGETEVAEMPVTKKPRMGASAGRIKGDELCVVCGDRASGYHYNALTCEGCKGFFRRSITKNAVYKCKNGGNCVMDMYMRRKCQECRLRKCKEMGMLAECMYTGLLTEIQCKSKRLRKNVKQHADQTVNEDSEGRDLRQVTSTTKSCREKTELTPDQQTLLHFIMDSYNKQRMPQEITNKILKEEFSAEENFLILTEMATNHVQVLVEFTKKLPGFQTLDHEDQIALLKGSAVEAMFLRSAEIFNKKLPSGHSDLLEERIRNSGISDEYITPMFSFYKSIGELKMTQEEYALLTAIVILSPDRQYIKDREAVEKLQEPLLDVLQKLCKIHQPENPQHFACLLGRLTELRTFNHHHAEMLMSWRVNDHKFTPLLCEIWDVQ
T1 sequence (P19793 1-462 partner): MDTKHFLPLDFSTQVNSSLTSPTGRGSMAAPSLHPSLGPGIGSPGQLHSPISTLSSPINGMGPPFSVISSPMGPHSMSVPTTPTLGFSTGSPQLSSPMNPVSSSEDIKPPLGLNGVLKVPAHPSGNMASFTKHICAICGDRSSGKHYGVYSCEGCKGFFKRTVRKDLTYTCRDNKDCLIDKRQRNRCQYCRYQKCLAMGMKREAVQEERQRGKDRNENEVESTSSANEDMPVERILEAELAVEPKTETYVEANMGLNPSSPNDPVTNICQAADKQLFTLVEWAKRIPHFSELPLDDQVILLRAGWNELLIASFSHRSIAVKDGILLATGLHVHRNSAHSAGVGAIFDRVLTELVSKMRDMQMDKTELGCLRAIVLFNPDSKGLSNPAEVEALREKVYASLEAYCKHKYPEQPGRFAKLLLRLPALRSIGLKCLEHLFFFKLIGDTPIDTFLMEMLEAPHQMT
The experiment in a line: FXR activity screen, luciferase reporter in transfected CV-1 cells. The experiment is classed as cell-based. How it is done: CV-1 cells were grown in DMEM+10% charcoal stripped FCS. Cells were seeded into 384-well plates the day before transfection to give a confluency of 50-80% at transfection. A total of […] DNA containing 0.32 micrograms pCMX-hFXRfl, 0.32 micrograms pCMX-hRXRfl, 0.1 micrograms pCMXβGal, 0.08 micrograms pGLFXRE reporter and 0.02 micrograms pCMX empty vector was transfected per well using FuGene transfection reagent according to the manufacturer's instructions (Roche). Cells were allowed to express protein for 48 hours followed by addition of compound.
Human FXR full length and RXR full length was obtained from Ronald Evans' laboratory and PCR amplification of the hFXR cDNA and the hRXR cDNA was performed. The amplified cDNAs was cloned into the vector pCMX generating the plasmids pCMX-hFXRfl and pCMX-hRXRfl. Ensuing fusions were verified by sequencing. The pCMXMH2004 luciferase reporter contains multiple copies of the GAL4 DNA response element under a minimal eukaryotic promoter (Hollenberg and Evans, 1988). pCMXβGal was generated in the Evans laboratory, Salk Institute.
All compounds were dissolved in DMSO and diluted 1:1000 upon addition to the cells. Compounds were tested in quadruple in concentrations ranging from 0.001 to 100 μM. Cells were treated with compound for 24 hours followed by luciferase assay. Each compound was tested in at least two separate experiments.
Medium including test compound was aspirated and washed with PBS. 50 μL PBS including 1 mM Mg^2+ and Ca^2+ were then added to each well. The luciferase assay was performed using the LucLite kit according to the manufacturer's instructions (Packard Instruments). Light emission was quantified by counting on a Perkin Elmer Envision reader. To measure […] activity 25 μL supernatant from each transfection lysate was transferred to a new 384 microplate. Beta-galactosidase assays were performed in the microwell plates using a kit from Promega and read in a Perkin Elmer Envision reader. The beta-galactosidase data were used to normalize (transfection efficiency, cell growth etc.) the luciferase data.
The activity of a compound is calculated as fold induction compared to an untreated sample. For each compound the efficacy (maximal activity) is given as a relative activity compared to Fexaramine, a FXR agonist. The EC50 is the concentration giving 50% of maximal observed activity. EC50 values were calculated via non-linear regression using GraphPad PRISM (GraphPad Software, San Diego, Calif.).
(In a reporter assay the amount or activity of a reporter protein is the signal.)

Setting [1] is: first round, CV-1 cells, 24 hours, read-out: 1st RND EC50.
Where [2] appears, read: second round, CV-1 cells, 24 hours, read-out: 2nd RND EC50.

Like-named read-outs stand apart in the source and are kept apart here.

Turning to `COC(=O)/C=C/c1cccc(N(Cc2ccc(-c3ccc(N(C)C)cc3)cc2F)C(=O)[C@@H]2C[C@@H]3CC[C@H]2C3)c1` [NSSK00043], the EC50 – broadly, the midpoint of the concentration-response curve – was 0.0809 µM under setting [1] and 0.0807 µM under setting [2]. `COC(=O)/C=C/c1cccc(N(Cc2cccc3cc4cnn(C)c4c(F)c23)C(=O)C2CCCCC2)c1` [NSSK00006]: the EC50 under setting [1] came out at 0.273 µM and the EC50 under setting [2] came to 0.243 µM.

On to `COC(=O)/C=C/c1cncc(N(Cc2cccc3cc4cnn(C)c4cc23)C(=O)C2CCCCC2)c1` [NSSK00005], for which the 50% effective concentration (EC50) is, setting by setting: under setting [1], 1.82 µM; under setting [2], 2.1 µM. The corresponding values for `COC(=O)/C=C/c1cc(F)cc(N(Cc2ccc(-c3ccc4c(cnn4C)c3)cc2Cl)C(=O)[C@@H]2C[C@@H]3CC[C@H]2C3)c1` [NSSK00047] are 0.355 µM and 0.403 µM. In the case of `COC(=O)/C=C/c1cncc(N(Cc2cccc3cc4cnn(C)c4c(F)c23)C(=O)C2CCCCC2)c1` [NSSK00008], the half-maximal effective concentration (EC50) was 2 µM under setting [1] and 1.4 µM under setting [2].

On to `[2H]C(c1ccc(-c2ccc3c(cnn3C)c2)cc1)N(C(=O)c1ccccc1)c1cc(F)cc(/C=C/C(=O)OC)c1` (centres unmarked) [NSSK00051], for which the concentration giving a half-maximal response (EC50) under setting [1] was 1.1 µM and the EC50 under setting [2] was determined as 5 µM.

On to `COC(=O)/C=C/c1cccc(N(Cc2ccc(-c3ccc(N(C)C)cc3)cc2)C(=O)[C@@H]2C[C@@H]3CC[C@H]2C3)c1` [NSSK00042], for which the 50% effective concentration (EC50) reads like this: under setting [1], 0.135 µM; under setting [2], 0.62 µM. In the same order, the values of `[2H]C(c1ccc(-c2ccc3c(cnn3C)c2)cc1)N(C(=O)C1CCCCC1)c1cncc(/C=C/C(=O)OC)c1` (centres unmarked) [NSSK00034] are 2.2 µM and 2.68 µM. The corresponding values for `COC(=O)/C=C/c1cncc(N(Cc2ccc(-c3ccc4c(cnn4C)c3)cc2)C(=O)c2ccccc2)c1` [NSSK00118] are 7 µM and 55 µM. In the same order, the values of `[2H]C(c1ccc(-c2ccc(N(C)C)cc2)cc1F)N(C(=O)c1ccccc1)c1cccc(/C=C/C(=O)OC)c1` (centres unmarked) [NSSK00079] are 0.513 µM and 0.605 µM. In the case of `COC(=O)/C=C/c1cc(F)cc(N(Cc2ccc(-c3ccc(N(C)C)cc3)cc2Cl)C(=O)c2ccccc2)c1` [NSSK00103], the concentration giving a half-maximal response (EC50) reads like this: under setting [1], 0.308 µM; under setting [2], 1 µM.

Turning to `[2H]C(c1ccc(-c2ccc(N(C)C)cc2)cc1Cl)N(C(=O)C1CCCCC1)c1cc(F)cc(/C=C/C(=O)OC)c1` (centres unmarked) [NSSK00072], the concentration for a half-maximal effect (EC50) under setting [1] came out at 1.1 µM and the EC50 under setting [2] amounted to 2.2 µM.

On to `COC(=O)/C=C/c1cccc(N(Cc2ccc(-c3ccc4c(cnn4C)c3)cc2Cl)C(=O)[C@@H]2C[C@@H]3CC[C@H]2C3)c1` [NSSK00046], for which the EC50 under setting [1] worked out at 0.639 µM and the 50% effective concentration (EC50) under setting [2] came to 0.519 µM.

For the compound `[2H]C(c1ccc(-c2ccc3c(cnn3C)c2)cc1Cl)N(C(=O)c1ccccc1)c1cc(F)cc(/C=C/C(=O)OC)c1` (centres unmarked) [NSSK00041], the EC50 under setting [1] was determined as 1.1 µM and the EC50 under setting [2] was found to be 1.2 µM. In the same order, the values of `COC(=O)/C=C/c1cccc(N(Cc2ccc(-c3ccc4c(cnn4C)c3)cc2F)C(=O)c2ccccc2)c1` [NSSK00057] are 0.606 µM and 0.795 µM. On to `[2H]C(c1ccc(-c2ccc3c(cnn3C)c2)cc1Cl)N(C(=O)[C@@H]1C[C@@H]2CC[C@H]1C2)c1cccc(/C=C/C(=O)OC)c1` (some centres unmarked) [NSSK00013], for which the concentration giving a half-maximal response (EC50) is 0.39 µM under setting [1] and 0.43 µM under setting [2]. In the same order, the values of `[2H]C(c1ccc(-c2ccc(N(C)C)cc2)cc1Cl)N(C(=O)[C@@H]1C[C@@H]2CC[C@H]1C2)c1cc(F)cc(/C=C/C(=O)OC)c1` (some centres unmarked) [NSSK00104] are 0.227 µM and 0.547 µM. In the same order, the values of `COC(=O)/C=C/c1cncc(N(Cc2ccc(-c3ccc(N(C)C)cc3)cc2Cl)C(=O)[C@@H]2C[C@@H]3CC[C@H]2C3)c1` [NSSK00082] are 5.1 µM and 6.1 µM. `[2H]C(c1ccc(-c2ccc(N(C)C)cc2)cc1)N(C(=O)c1ccccc1)c1cncc(/C=C/C(=O)OC)c1` (centres unmarked) [NSSK00063]: the half-maximal effective concentration (EC50) reads like this: under setting [1], 3 µM; under setting [2], 1.9 µM. The corresponding values for `COC(=O)/C=C/c1cccc(N(Cc2ccc(-c3ccc(N(C)C)cc3)cc2)C(=O)c2ccccc2)c1` [NSSK00053] are 0.529 µM and 0.539 µM. Consider `COC(=O)/C=C/c1cccc(N(Cc2ccc(-c3ccc(N(C)C)cc3)cc2Cl)C(=O)[C@@H]2C[C@@H]3CC[C@H]2C3)c1` [NSSK00052], for which the concentration giving a half-maximal response (EC50) amounted to 0.697 µM under setting [1] and 0.697 µM under setting [2].

Turning to `[2H]C(c1ccc(-c2ccc3c(cnn3C)c2)cc1)N(C(=O)c1ccccc1)c1cccc(/C=C/C(=O)OC)c1` (centres unmarked) [NSSK00049], the EC50 reads like this: under setting [1], 2.8 µM; under setting [2], 3.5 µM.

As to `COC(=O)/C=C/c1cncc(N(Cc2ccc(-c3ccc4c(cnn4C)c3)cc2Cl)C(=O)c2ccccc2)c1` [NSSK00092], the concentration for a half-maximal effect (EC50) worked out at 3.4 µM under setting [1] and 5.5 µM under setting [2]. As to `[2H]C(c1ccc(-c2ccc(N(C)C)cc2)cc1F)N(C(=O)C1CCCCC1)c1cccc(/C=C/C(=O)OC)c1` (centres unmarked) [NSSK00027, methyl (E)-3-(3-(N-((4′-(dimethylamino)-3-fluoro-[1,1′-biphenyl]-4-yl)methyl-d)cyclohexanecarboxamido)phenyl)acrylate], the 50% effective concentration (EC50) came out at 0.0489 µM under setting [1]; 0.118 µM (retest, read-out: EC50 (retested)); 0.0466 µM under setting [2]. As to `COC(=O)/C=C/c1cncc(N(Cc2cccc3cc4cnn(C)c4c(Cl)c23)C(=O)C2CCCCC2)c1` [NSSK00009], the concentration giving a half-maximal response (EC50) is, setting by setting: under setting [1], 3.3 µM; under setting [2], 4.9 µM. In the same order, the values of `[2H]C(c1ccc(-c2ccc(N(C)C)cc2)cc1)N(C(=O)C1CCCCC1)c1cc(F)cc(/C=C/C(=O)OC)c1` (centres unmarked) [NSSK00025] are 0.15 µM and 0.168 µM. As for `COC(=O)/C=C/c1cncc(N(Cc2ccc(-c3ccc(N(C)C)cc3)cc2F)C(=O)[C@@H]2C[C@@H]3CC[C@H]2C3)c1` [NSSK00115], under setting [2], the concentration for a half-maximal effect (EC50) was 2 µM. As to `[2H]C(c1ccc(-c2ccc(N(C)C)cc2)cc1F)N(C(=O)c1ccccc1)c1cc(F)cc(/C=C/C(=O)OC)c1` (centres unmarked) [NSSK00108], the EC50 under setting [2] turned out to be 0.497 µM. With `[2H]C(c1ccc(-c2ccc(N(C)C)cc2)cc1Cl)N(C(=O)[C@@H]1C[C@@H]2CC[C@H]1C2)c1cncc(/C=C/C(=O)OC)c1` (some centres unmarked) [NSSK00064], the EC50 stood at 4.6 µM under setting [1] and 3.3 µM under setting [2]. On to `COC(=O)/C=C/c1cccc(N(Cc2ccc(-c3ccc4c(cnn4C)c3)cc2Cl)C(=O)C2CCN(C)CC2)c1` [NSSK00075], for which the concentration for a half-maximal effect (EC50) under setting [1] was 155 µM and the concentration for a half-maximal effect (EC50) under setting [2] is 653 µM. The corresponding values for `[2H]C(c1ccc(-c2ccc3c(cnn3C)c2)cc1)N(C(=O)[C@@H]1C[C@@H]2CC[C@H]1C2)c1cccc(/C=C/C(=O)OC)c1` (some centres unmarked) [NSSK00086] are 0.371 µM and 1.6 µM. The corresponding values for `COC(=O)/C=C/c1cc(F)cc(N(Cc2ccc(-c3ccc(N(C)C)cc3)cc2F)C(=O)[C@@H]2C[C@@H]3CC[C@H]2C3)c1` [NSSK00044] are 0.149 µM and 0.144 µM. In the same order, the values of `[2H]C(c1ccc(-c2ccc3c(cnn3C)c2)cc1F)N(C(=O)[C@@H]1C[C@@H]2CC[C@H]1C2)c1cncc(/C=C/C(=O)OC)c1` (some centres unmarked) [NSSK00066] are 5.4 µM and 8.5 µM.

Source of the values: patent US20190084939A1, “ANALOGS OF FEXARAMINE AND METHODS OF MAKING AND USING” (Salk Institute for Biological Studies, priority 2014, published 2019).
